Values of other authors as cited in patent US10907142B2, “Oligosaccharides comprising an aminooxy group and conjugates thereof” (Genzyme Corporation, priority 2007, dated 2021).

Test system: skeletal and cardiac muscle glycogen
Details: murine model of Pompe disease; compared with recombinant human GAA; conjugate prepared by the method of U.S. Pat. No. 7,001,994

In the case of “conjugate of the lysosomal enzyme acid α-glucosidase (GAA) with a a bis-M6P oligosaccharide: GAA coupled with a bis-M6P oligosaccharide by the method of U.S. Pat. No. 7,001,994”, the “reducing skeletal and cardiac muscle glycogen” value is listed as “more effective in reducing skeletal and cardiac muscle glycogen than recombinant human GAA”.
